Patent US6706663B2, “Herbicidal 3-heterocyclic substituted benzisothiazole and benzisoxazole compounds” (Wyeth, priority 2000, dated 2004)

Tests used:
[1] = tested on: CYPSE (Cyperus serotinus); assay: Flooded paddy, preemergence weed control; format: in vivo, Rottb.; conditions: rated 3-4 weeks after treatment, 0-9 rating scale
Method in brief: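 Seeds or propagules were planted 0.5 cm deep in silt loam and flooded to 1.5–3 cm. Compounds in 50/50 v/v aqueous/acetone were pipetted into the flood water at about 0.0080 to 0.1250 kg/ha. After 3–4 weeks in the greenhouse, effect was rated visually on a 0–9 scale versus untreated control.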

[2] = tested on: TRZAWR (Wheat, Winter, cv Riband); assay: Preemergence herbicidal evaluation; format: in vivo, Triticum aestivum; conditions: preemergence, rated 4-5 weeks after treatment
Method in brief: (§1)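 Seeds planted in potting soil cups and sprayed preemergence with aqueous acetone compound solution. Greenhouse-grown; rated 4–5 weeks after treatment on a 0-9 visual scale (stand, vigor, malformation, size, chlorosis, appearance) versus control.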

[3] = tested on: ECHORC (Echinochloa oryzoides); assay: Flooded paddy, preemergence weed control; format: in vivo, Echinochloa oryzoides (Ard.) Fritsch.; conditions: rated 3-4 weeks after treatment, 0-9 rating scale
Method in brief: (§2)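 Flooded silt loam pots, seeds in upper 0.5 cm, water held 1.5–3 cm deep; greenhouse; visual 0-9 score vs control.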

GALAP (Galium aparine) [4] = assay: Preemergence herbicidal evaluation; format: in vivo; conditions: preemergence, rated 4-5 weeks after treatment
Method in brief: as §1

[5] = tested on: CHEAL (Chenopodium album); assay: Preemergence herbicidal evaluation; format: in vivo, L.; conditions: preemergence, rated 4-5 weeks after treatment
Method in brief: as §1

[6] = tested on: AMBEL (Ambrosia artemisifolia); assay: Preemergence herbicidal evaluation; format: in vivo, L.; conditions: preemergence, rated 4-5 weeks after treatment
Method in brief: as §1

[7] = tested on: CASOB (Cassia obtusifolia); assay: Preemergence herbicidal evaluation; format: in vivo, L.; conditions: preemergence, rated 4-5 weeks after treatment
Method in brief: as §1

ZEAMX (Corn, Field) [8] = assay: Postemergence herbicidal evaluation; format: in vivo, Zea mays, L.
Method in brief: (§3)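 Seedlings grown about two weeks in flats, sprayed, then kept under standard greenhouse care. Rated visually 4–5 weeks after treatment on a 0–9 scale (stand, vigour, malformation, size, chlorosis, overall appearance) relative to untreated control; repeat tests averaged.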

[9] = tested on: CHEAL (Chenopodium album); assay: Postemergence herbicidal evaluation; format: in vivo, L.
Method in brief: as §3

[10] = tested on: AMBEL (Ambrosia artemisifolia); assay: Postemergence herbicidal evaluation; format: in vivo, L.
Method in brief: as §3

[11] = tested on: CASOB (Cassia obtusifolia); assay: Postemergence herbicidal evaluation; format: in vivo, L.
Method in brief: as §3

[12] = tested on: GLXMAW (Soybean, Williams); assay: Preemergence herbicidal evaluation; format: in vivo, Glycine max, (L.) Merr. cv Williams; conditions: preemergence, rated 4-5 weeks after treatment
[13] = tested on: IPOHE (Ipomoea hederacea); assay: Preemergence herbicidal evaluation; format: in vivo, (L.) Jacq.; conditions: preemergence, rated 4-5 weeks after treatment
[14] = tested on: SAGPY (Sagittaria pygmaea); assay: Flooded paddy, preemergence weed control; format: in vivo, L.; conditions: rated 3-4 weeks after treatment, 0-9 rating scale
Method in brief: as §2

[15] = tested on: GLXMAW (Soybean, Williams); assay: Postemergence herbicidal evaluation; format: in vivo, Glycine max, (L.) Merr. cv Williams
Method in brief: as §3

GALAP (Galium aparine) [16] = assay: Postemergence herbicidal evaluation; format: in vivo
Method in brief: as §3

[17] = tested on: IPOHE (Ipomoea hederacea); assay: Postemergence herbicidal evaluation; format: in vivo, (L.) Jacq.
Method in brief: as §3

[18] = tested on: ECHCG (Echinochloa crus-galli); assay: Postemergence herbicidal evaluation; format: in vivo, (L.) Beau
Method in brief: as §3

CYPIR (Cyperus iria) = assay: Flooded paddy, preemergence weed control; format: in vivo; conditions: rated 3-4 weeks after treatment, 0-9 rating scale
Method in brief: as §2

[19] = tested on: ABUTH (Abutilon theophrasti); assay: Postemergence herbicidal evaluation; format: in vivo, Medic.
Method in brief: as §3

ZEAMX (Corn, Field) [20] = assay: Preemergence herbicidal evaluation; format: in vivo, Zea mays, L.; conditions: preemergence, rated 4-5 weeks after treatment
ORYSAT (Rice, Tebonnet) = assay: Preemergence herbicidal evaluation; format: in vivo, Oryza sativa, (L.) Tebonnet; conditions: preemergence, rated 4-5 weeks after treatment

## COC(=O)COc1ccsc1-c1nsc2ccc(-n3c(=O)cc(C(F)(F)F)n(C)c3=O)cc12 [Compound 22, Methyl [(2-[5-[3,6-dihydro-3-methyl-2,6-dioxo-4-(trifluoromethyl)-1(2H)-pyrimidinyl]-1,2-benzisothiazol-3-yl]-3-thienyl]oxy]acetate]
[1]; rate 0.0320 kg/ha
  herbicidal rating, CYPSE: 0.0
[1]; rate 0.1250 kg/ha
  herbicidal rating, CYPSE: 0.0
[2]; Rate 0.0620 kg/ha
  TRZAWR preemergence herbicidal rating: 0.0
[2]; Rate 0.1250 kg/ha
  TRZAWR preemergence herbicidal rating: 0.0
[2]; Rate 0.2500 kg/ha
  TRZAWR preemergence herbicidal rating: 0.0
[3]; rate 0.0080 kg/ha
  herbicidal rating, ECHORC: 0.0
[3]; rate 0.0320 kg/ha
  herbicidal rating, ECHORC: 0.0
[3]; rate 0.1250 kg/ha
  herbicidal rating, ECHORC: 5.0
GALAP (Galium aparine) [4]; Rate 0.0620 kg/ha
  GALAP preemergence herbicidal rating: 0.0
GALAP (Galium aparine) [4]; Rate 0.1250 kg/ha
  GALAP preemergence herbicidal rating: 0.0
GALAP (Galium aparine) [4]; Rate 0.2500 kg/ha
  GALAP preemergence herbicidal rating: 1.0
[5]; Rate 0.0620 kg/ha
  CHEAL preemergence herbicidal rating: 0.0
[5]; Rate 0.1250 kg/ha
  CHEAL preemergence herbicidal rating: 3.0
[5]; Rate 0.2500 kg/ha
  CHEAL preemergence herbicidal rating: 9.0
[6]; Rate 0.0620 kg/ha
  AMBEL preemergence herbicidal rating: 0.0
[6]; Rate 0.1250 kg/ha
  AMBEL preemergence herbicidal rating: 0.0
[6]; Rate 0.2500 kg/ha
  AMBEL preemergence herbicidal rating: 2.0
[7]; Rate 0.0620 kg/ha
  CASOB preemergence herbicidal rating: 0.0
[7]; Rate 0.1250 kg/ha
  CASOB preemergence herbicidal rating: 0.0
[7]; Rate 0.2500 kg/ha
  CASOB preemergence herbicidal rating: 1.0
ZEAMX (Corn, Field) [8]; rate 0.0320 kg/ha
  Postemergence herbicidal rating, ZEAMX: 4.5
ZEAMX (Corn, Field) [8]; rate 0.0620 kg/ha
  Postemergence herbicidal rating, ZEAMX: 6.0
ZEAMX (Corn, Field) [8]; rate 0.1250 kg/ha
  Postemergence herbicidal rating, ZEAMX: 7.0
[9]; rate 0.0320 kg/ha
  Postemergence herbicidal rating, CHEAL: 1.0
[9]; rate 0.0620 kg/ha
  Postemergence herbicidal rating, CHEAL: 4.0
[9]; rate 0.1250 kg/ha
  Postemergence herbicidal rating, CHEAL: 4.0
[10]; rate 0.0320 kg/ha
  Postemergence herbicidal rating, AMBEL: 2.0
[10]; rate 0.0620 kg/ha
  Postemergence herbicidal rating, AMBEL: 4.0
[10]; rate 0.1250 kg/ha
  Postemergence herbicidal rating, AMBEL: 6.0
[11]; rate 0.0320 kg/ha
  Postemergence herbicidal rating, CASOB: 0.0
[11]; rate 0.0620 kg/ha
  Postemergence herbicidal rating, CASOB: 0.0
[11]; rate 0.1250 kg/ha
  Postemergence herbicidal rating, CASOB: 1.0
[12]; Rate 0.0620 kg/ha
  GLXMAW preemergence herbicidal rating: 0.0
[12]; Rate 0.1250 kg/ha
  GLXMAW preemergence herbicidal rating: 0.0
[12]; Rate 0.2500 kg/ha
  GLXMAW preemergence herbicidal rating: 0.0
[13]; Rate 0.0620 kg/ha
  IPOHE preemergence herbicidal rating: 0.0
[13]; Rate 0.1250 kg/ha
  IPOHE preemergence herbicidal rating: 0.0
[13]; Rate 0.2500 kg/ha
  IPOHE preemergence herbicidal rating: 0.0
[14]; rate 0.0080 kg/ha
  herbicidal rating, SAGPY: 0.0
[14]; rate 0.0320 kg/ha
  herbicidal rating, SAGPY: 0.0
[14]; rate 0.1250 kg/ha
  herbicidal rating, SAGPY: 0.0
[15]; rate 0.0320 kg/ha
  Postemergence herbicidal rating, GLXMAW: 5.5
[15]; rate 0.0620 kg/ha
  Postemergence herbicidal rating, GLXMAW: 5.5
[15]; rate 0.1250 kg/ha
  Postemergence herbicidal rating, GLXMAW: 6.5
GALAP (Galium aparine) [16]; rate 0.0320 kg/ha
  Postemergence herbicidal rating, GALAP: 0.0
GALAP (Galium aparine) [16]; rate 0.0620 kg/ha
  Postemergence herbicidal rating, GALAP: 0.0
GALAP (Galium aparine) [16]; rate 0.1250 kg/ha
  Postemergence herbicidal rating, GALAP: 1.0
[17]; rate 0.0320 kg/ha
  Postemergence herbicidal rating, IPOHE: 4.0
[17]; rate 0.0620 kg/ha
  Postemergence herbicidal rating, IPOHE: 4.0
[17]; rate 0.1250 kg/ha
  Postemergence herbicidal rating, IPOHE: 6.0
[18]; rate 0.0320 kg/ha
  Postemergence herbicidal rating, ECHCG: 0.0
[18]; rate 0.0620 kg/ha
  Postemergence herbicidal rating, ECHCG: 2.0
[18]; rate 0.1250 kg/ha
  Postemergence herbicidal rating, ECHCG: 6.0
CYPIR (Cyperus iria); rate 0.0080 kg/ha
  herbicidal rating, CYPIR: 0.0
CYPIR (Cyperus iria); rate 0.0320 kg/ha
  herbicidal rating, CYPIR: 2.5
CYPIR (Cyperus iria); rate 0.1250 kg/ha
  herbicidal rating, CYPIR: 3.0
[19]; rate 0.0320 kg/ha
  Postemergence herbicidal rating, ABUTH: 5.0
[19]; rate 0.0620 kg/ha
  Postemergence herbicidal rating, ABUTH: 4.0
[19]; rate 0.1250 kg/ha
  Postemergence herbicidal rating, ABUTH: 6.0
ZEAMX (Corn, Field) [20]; Rate 0.0620 kg/ha
  ZEAMX preemergence herbicidal rating: 0.0
ZEAMX (Corn, Field) [20]; Rate 0.1250 kg/ha
  ZEAMX preemergence herbicidal rating: 0.0
ZEAMX (Corn, Field) [20]; Rate 0.2500 kg/ha
  ZEAMX preemergence herbicidal rating: 1.0
ORYSAT (Rice, Tebonnet); Rate 0.0620 kg/ha
  ORYSAT preemergence herbicidal rating: 0.0
ORYSAT (Rice, Tebonnet); Rate 0.1250 kg/ha
  ORYSAT preemergence herbicidal rating: 0.0
ORYSAT (Rice, Tebonnet); Rate 0.2500 kg/ha
  ORYSAT preemergence herbicidal rating: 0.0
